Literature values as cited in patent US20220095612A1, “MICRONUTRIENT COMPOSITIONS AND SYSTEMS AND METHODS OF USING SAME” (Nanochem Solutions, Inc., priority 2020, published 2022).

N[C@@H](CC(=O)O)C(=O)O [L-aspartic acid]
pH at which the alpha carboxyl deprotonates (alpha carboxyl group): about 2.09 | pH at which the carboxyl side group deprotonates (carboxyl side group): about 3.86
